Results as given in patent publication US11478469B2, “Combination product of BCL-2 inhibitor and MDM2 inhibitor and use thereof in the prevention and/or treatment of diseases” (ASCENTAGE PHARMA (SUZHOU) CO., LTD., priority 2018, dated 2022).

Columns and labels:
[1] = test system: human MV-4-11 AML xenograft; experiment: MV-4-11 AML xenograft in Balb/c nude mice; type: in vivo, mouse; conditions: for Response rate @D 22: mPD (progressive disease) / Best response rate: mPD (progressive disease): compound 6 100 mg/kg and/or APG-115 100 mg/kg, mice per group; for Response rate @D 22: mPD (progressive disease) / RTV @ D 22 / T/C (%) @ D 22: day 22; for RTV @ D 22 / T/C (%) @ D 22: compound 6 100 mg/kg p.o. qd×22 d and/or APG-115 100 mg/kg orally daily d1-7 and d16-22
From the text: A subcutaneous xenograft tumor model of human tumor immunodeficient mice was established by cell inoculation (see: Gould S E et al. Translational value of mouse models in oncology drug development. Nature medicine. 2015 21, 431-439; and, Souers A J et al. ABT-199, a potent and selective BCL-2 inhibitor, achieves antitumor activity while sparing platelets. Nature medicine. 2012 19.202-208): tumor cells in logarithmic growth phase were collected, counted and resuspended in 1×PBS, and the cell suspension concentration was adjusted to 2.5-5×10^7/mL. Using a 1 mL syringe ([…]), the tumor cells were inoculated subcutaneously in the right side of immunodeficient mice, 5-10×106/0.2 mL/mouse (experimental animals were purchased from Beijing Vital River Laboratory Animal Technology Co., Ltd. SCXK (Beijing) 2016-0006). All animal experiments were strictly in accordance with the laboratory animal use and management practices of GenePharma Co., Ltd. and Ascentage Pharma Group Co., Ltd. The calculation of relevant parameters referred to the Chinese CFDA “Guidelines for Non-Clinical Research Techniques of Cytotoxic Antitumor Drugs”.
Animal body weight and tumor size were measured twice a week during the experiment. The conditions and death of the animals were observed every day. Routine monitoring included the effects of tumor growth and treatment on normal animal behaviors, including activity, feeding and drinking situations, weight gain or loss, eyes, coat and other abnormalities in the experimental animals. The deaths and clinical symptoms observed during the experiment were recorded in the raw data. The entire operations of administration, measurement of mouse body weight and tumor volume were performed in a clean bench. Plasma and tumor tissues were collected, weighed and photographed after the end of the last administration according to the experimental protocol. Plasma and tumor samples were frozen and stored at −80° C.
Tumor volume (TV) was calculated as: TV=a×b2/2, in which a and b represented the length and width of the tumor as measured, respectively. The relative tumor volume (RTV) was calculated as: RTV=Vt/V1, in which V1 was the tumor volume at the time of grouping and administration, and Vt was the tumor volume measured on a day after administration. The evaluation index of anti-tumor activity was the relative tumor proliferation rate T/C (%), which was calculated as: relative tumor proliferation rate T/C (%)=(TRTV/CRTV)×100%, in which TRTV was the RTV of the treatment group, CRTV was the RTV of the vehicle control group; tumor remission rate (%) was calculated as: (the number of SD (stable disease), PR (tumor partial regression) and CR (tumor complete regression) in the tumor-bearing mice after treatment)/the total number of mice in the group×100%. Change of body weight %=(measured body weight−body weight at the time of grouping)/body weight at the time of grouping×100%.
The synergistic analysis was performed by the following formula (Gould S E et al. Translational value of mouse models in oncology drug development. Nature medicine. 2015 21, 431-439): synergy factor=((A/C)×(B/C))/(AB/C); A=RTV value of the group administered with A only; B═RTV value of the group administered with B only; C=RTV value of the vehicle control group; AB=RTV value of the group administered with A and B in combination (Clarke R. Issues in experimental design and endpoint analysis in the study of experimental cytotoxic agents in vivo in breast cancer and other models [J]. Breast Cancer Research & Treatment, 1997, 46(2-3): 255-278).
(1) The experimental method was as described in Section (2) of Example 1. Compound 6 is a selective BCL-2 inhibitor developed by the Ascentage Pharma Group. The agent is currently under clinical development for cancer therapy both in China and in the US. Enhanced anti-proliferation activity of APG-115 in combination with compound 6 has been observed in cell-based assay in AML cell lines in vitro. […]

[2] = test system: KMS-26 (multiple myeloma (MM)); experiment: CellTiter-Glo (CTG) cell proliferation assay, KMS-26; type: cell-based; conditions: KMS-26, single agent alone, 24 hours; read-out: IC50 for inhibition of proliferation
Method: (§1) Anti-proliferative effects were tested by CellTiter-Glo® (CTG) assay. Cells were seeded in 96-well plates and treated with different concentrations of test substance for 24 hours. By using 9 different concentrations of Compound 6 (which were selected in a 3× gradient between 10-3 and 101 μM, i.e., 0.0016, 0.0045, 0.014, 0.041, 0.12, 0.36, 1.1, 3.2, 10 μM) in combination with 3 different concentrations of MDM2 inhibitor (e.g., APG-115) in action for 24 hours, the effects of Compound 6 in combination with the drug were tested. Each test dose was tested with 3 replicate wells.
(§2) Usually, 9 series of doses of the test substance were selected, and added to 96-well plates, 5 μl/well. For the combination experiment, the final volume of the two test substances was 5 μl/well. […] After mixing on a shaker for 2 minutes, leaving at room temperature for 10 minutes, the fluorescence value was read by using a Biotek synergy HIMF plate reader. Using the average fluorescence value of 3 replicate wells, the percentage of cell viability was calculated by the following formula: Cell viability (%)=(fluorescence value of test well—fluorescence value of negative control well)/(fluorescence value of vehicle control-fluorescence value of negative control group)×100%
(§3) The IC50 was calculated using the nonlinear regression data analysis method of Graphpad Prism 6.0 software ([…]). […]

[3] = test system: KMS-11 (multiple myeloma (MM)); experiment: CellTiter-Glo (CTG) cell proliferation assay, KMS-11; type: cell-based; conditions: Homo sapiens; KMS-11, single agent alone, 24 hours; read-out: IC50 for inhibition of proliferation
Method: as §1, §2, §3

| Compound | Response rate @D 22: mPD (progressive disease) [1] | Best response rate: mPD (progressive disease) [1] | RTV @ D 22 [1] | T/C (%) @ D 22 [1] | IC50 [2] | IC50 [3] |
| --- | --- | --- | --- | --- | --- | --- |
| CCN1[C@@H](C(=O)NC23CCC(C(=O)O)(CC2)CC3)[C@H](c2cccc(Cl)c2F)[C@]2(C(=O)Nc3cc(Cl)ccc32)C12CCCCC2 [APG-115] | 6/6 mPD | 6/6 mPD | 9.2 ± 2.3 | 67.1% |  |  |
| O=C(NS(=O)(=O)c1ccc(NC[C@H]2COCCO2)c([N+](=O)[O-])c1)c1ccc(N2CCN(CC3=C(c4ccc(Cl)cc4)CC4(CCC4)CC3)CC2)cc1Oc1cnc2[nH]ccc2c1 [Compound 6, (S)-N-((4-(((1,4-dioxan-2-yl)methyl)amino)-3-nitrophe-nyl)sulfonyl)-2-((1H-pyrrolo[2,3-b]pyridin-5-yl)oxy)-4-(4-((6-(4-chlorophenyl)spiro[3.5]non-6-en-7-yl)meth-yl)piperazin-1-yl)benzamide] | 6/6 mPD | 6/6 mPD | 7.5 ± 0.9 | 55.1% | 14.7 µM | 10.8 µM |
